Reference: ChEMBL document CHEMBL1641584 (Bioorg Med Chem Lett, 2011)
Calls of active or inactive are those of the source. The rule behind the calls is not given here.

species: Cavia porcellus; assay: Inhibition of guinea pig protein-glutamine gamma-glutamyltransferase 2-mediated amyloid-beta oligomerization at 0.1 to 10 uM

| inhibition | Structure (SMILES) |
| --- | --- |
| Active | NNC(=O)CSc1nc2sc3c(c2c(=O)n1-c1cccc(F)c1)C(c1ccccc1)CCC3 (stereo not drawn) |

target: not listed separately; assay: Inhibition of guinea pig protein-glutamine gamma-glutamyltransferase 2 assessed as fluorescent intensity of monodansyl cadaverine; set-up: species or system Cavia porcellus

| Structure (SMILES) | IC50 [µM] |
| --- | --- |
| COC(=O)C(CSSCC(NCCC(=O)c1cccs1)C(=O)OC)NCCC(=O)c1cccs1 (stereo not drawn) | 0.4 |
| O=C(CCNCCSSCCNCCC(=O)c1cccc(Br)n1)c1cccc(Br)n1 | 2.6 |
| COC(=O)C(CSSCC(NCCC(=O)c1ccc2ccccc2c1)C(=O)OC)NCCC(=O)c1ccc2ccccc2c1 (stereo not drawn) | 19 |
| COC(=O)C(CSSCC(NCCC(=O)c1ncc(C)s1)C(=O)OC)NCCC(=O)c1ncc(C)s1 (stereo not drawn) | 4 |
| COC(=O)C(CSSCC(NCCC(=O)c1nccs1)C(=O)OC)NCCC(=O)c1nccs1 (stereo not drawn) | 9.7 |
| COC(=O)C(CSSCC(NCCC(=O)c1ccc(C#N)cc1)C(=O)OC)NCCC(=O)c1ccc(C#N)cc1 (stereo not drawn) | 1.3 |
| O=C(CCNCCSSCCNCCC(=O)c1cccs1)c1cccs1 | 0.51 |
| O=C(CCNCCSSCCNCCC(=O)c1cccnc1)c1cccnc1 | 1.4 |
| COC(=O)C(CSSCC(NCCC(=O)c1sccc1Br)C(=O)OC)NCCC(=O)c1sccc1Br (stereo not drawn) | 5.7 |
| COC(=O)C(CSSCC(NCCC(=O)c1cc2ccccc2s1)C(=O)OC)NCCC(=O)c1cc2ccccc2s1 (stereo not drawn) | 0.9 |
| O=C(CCNCCSSCCNCCC(=O)c1ccco1)c1ccco1 | 0.42 |
| O=C(CCNCCSSCCNCCC(=O)c1ccccc1)c1ccccc1 | 2.2 |
| COC(=O)C(CCSSCCC(NCCC(=O)c1cccs1)C(=O)OC)NCCC(=O)c1cccs1 (stereo not drawn) | 3.6 |
| O=C(CCNCCSSCCNCCC(=O)c1ccsc1)c1ccsc1 | 1.6 |
| COC(=O)C(CSSCC(NCCC(=O)c1ccc(Br)cc1)C(=O)OC)NCCC(=O)c1ccc(Br)cc1 (stereo not drawn) | 11 |
| O=C(CCNCCSSCCNCCC(=O)c1ccc(I)cc1)c1ccc(I)cc1 | 0.89 |
| O=C(CCNCCSSCCNCCC(=O)c1ccc2ccccc2c1)c1ccc2ccccc2c1 | 2 |
| COC(=O)C(CCSSCCC(NCCC(=O)c1ccc(Br)cc1)C(=O)OC)NCCC(=O)c1ccc(Br)cc1 (stereo not drawn) | 1.6 |
| COC(=O)C(CSSCC(NCCC(=O)c1ccncc1)C(=O)OC)NCCC(=O)c1ccncc1 (stereo not drawn) | 3.4 |
| COC(=O)C(CSSCC(NCCC(=O)c1cccc(Br)n1)C(=O)OC)NCCC(=O)c1cccc(Br)n1 (stereo not drawn) | 1.1 |
| COC(=O)C(CSSCC(NCCC(=O)c1ncccn1)C(=O)OC)NCCC(=O)c1ncccn1 (stereo not drawn) | 5.5 |
| N#Cc1ccc(C(=O)CCNCCSSCCNCCC(=O)c2ccc(C#N)cc2)cc1 | 1.1 |
| COC(=O)C(CSSCC(NCCC(=O)c1ccco1)C(=O)OC)NCCC(=O)c1ccco1 (stereo not drawn) | 2.9 |

The remaining lines, values ahead:

| IC50 [µM] | Structure (SMILES) |
| --- | --- |
| 0.17 | O=C(CCNCCSSCCNCCC(=O)c1ccc(I)s1)c1ccc(I)s1 |
| 0.24 | COC(=O)C(CSSCC(NCCC(=O)c1ccc(I)s1)C(=O)OC)NCCC(=O)c1ccc(I)s1 (stereo not drawn) |
| 0.099 | COC(=O)C(CCSSCCC(NCCC(=O)c1ccc(Br)s1)C(=O)OC)NCCC(=O)c1ccc(Br)s1 (stereo not drawn) |
| 0.12 | O=C(CCNCCSSCCNCCC(=O)c1ccc(Br)cc1)c1ccc(Br)cc1 |
| 0.1 | COC(=O)C(CCSSCCC(NCCC(=O)c1ccc(I)s1)C(=O)OC)NCCC(=O)c1ccc(I)s1 (stereo not drawn) |
| 0.18 | COC(=O)C(CSSCC(NCCC(=O)c1ccc(Br)s1)C(=O)OC)NCCC(=O)c1ccc(Br)s1 (stereo not drawn) |
| 0.17 | O=C(CCNCCSSCCNCCC(=O)c1cc2ccccc2s1)c1cc2ccccc2s1 |
| 0.12 | O=C(CCNCCSSCCNCCC(=O)c1ccc(Cl)s1)c1ccc(Cl)s1 |
| 0.12 | O=C(CCNCCSSCCNCCC(=O)c1ccc(Br)s1)c1ccc(Br)s1 |
| 0.21 | O=C(CCNCCSSCCNCCC(=O)c1sccc1Br)c1sccc1Br |
| 0.33 | COC(=O)C(CCSSCCC(NCCC(=O)c1sccc1Br)C(=O)OC)NCCC(=O)c1sccc1Br (stereo not drawn) |
| 0.12 | COC(=O)C(CCSSCCC(NCCC(=O)c1cc2ccccc2s1)C(=O)OC)NCCC(=O)c1cc2ccccc2s1 (stereo not drawn) |
| 0.12 | COC(=O)C(CCSSCCC(NCCC(=O)c1ccc(Cl)s1)C(=O)OC)NCCC(=O)c1ccc(Cl)s1 (stereo not drawn) |
| 0.19 | COC(=O)C(CSSCC(NCCC(=O)c1ccc(Cl)s1)C(=O)OC)NCCC(=O)c1ccc(Cl)s1 (stereo not drawn) |
